Test results as given in paper PMC5218480 (PLoS ONE, 2017).

Tested on: MV-4-11 cells
Experiment: Gene expression microarray analysis (Affymetrix PrimeView) and GSEA
Assay type: cell-based, human
Design: RFU PODN (11730768_x_at) / Fold change /veh PODN (11730768_x_at) / RFU LINC00158 (11744669_a_at) / Fold change /veh LINC00158 (11744669_a_at) / RFU DUSP10 (11751237_a_at) / Fold change /veh DUSP10 (11751237_a_at) / RFU ID3 (11757404_x_at) / Fold change /veh ID3 (11757404_x_at) / RFU PLEKHG5 (11737974_s_at) / Fold change /veh PLEKHG5 (11737974_s_at) / RFU LRRC4B (11730491_at) / Fold change /veh LRRC4B (11730491_at) / RFU GIMAP4 (11747438_a_at) / Fold change /veh GIMAP4 (11747438_a_at) / RFU KRT8 (11758183_x_at) / Fold change /veh KRT8 (11758183_x_at) / RFU CNN1 (11734310_a_at) / Fold change /veh CNN1 (11734310_a_at) / RFU VPS37D (11726825_at) / Fold change /veh VPS37D (11726825_at) / RFU C10orf10 (11716522_x_at) / Fold change /veh C10orf10 (11716522_x_at) / RFU KIR2DL2 /// KIR2DL4 /// KIR2DL5A /// KIR2DL5B /// KIR2DS1 /// KIR2DS2 /// KIR2DS3 /// KIR2DS4 /// KIR3DL3 /// KIR3DL3 /// KIR3DS1 (11738374_at) / Fold change /veh KIR2DL2 /// KIR2DL4 /// KIR2DL5A /// KIR2DL5B /// KIR2DS1 /// KIR2DS2 /// KIR2DS3 /// KIR2DS4 /// KIR3DL3 /// KIR3DL3 /// KIR3DS1 (11738374_at) / RFU C1QL1 (11718748_at) / Fold change /veh C1QL1 (11718748_at) / RFU TMPRSS4 (11747572_a_at) / Fold change /veh TMPRSS4 (11747572_a_at) / RFU HAMP (11756126_x_at) / Fold change /veh HAMP (11756126_x_at) / RFU RNFT2 (11725882_a_at) / Fold change /veh RNFT2 (11725882_a_at) / RFU NR4A2 (11747474_a_at) / Fold change /veh NR4A2 (11747474_a_at) / RFU ABCC12 (11746883_a_at) / Fold change /veh ABCC12 (11746883_a_at) / RFU TMEM136 (11760407_x_at) / Fold change /veh TMEM136 (11760407_x_at) / RFU CLDN22 /// WWC2 (11732394_at) / Fold change /veh CLDN22 /// WWC2 (11732394_at) / RFU HLA-DPB1 (11760878_x_at) / Fold change /veh HLA-DPB1 (11760878_x_at) / RFU SPINT1 (11716480_a_at) / Fold change /veh SPINT1 (11716480_a_at) / RFU GAP43 (11754022_s_at) / Fold change /veh GAP43 (11754022_s_at) / RFU A4GNT (11735810_at) / Fold change /veh A4GNT (11735810_at) / RFU PRB3 (11715151_x_at) / Fold change /veh PRB3 (11715151_x_at) / RFU TUBB4B (11761932_at) / Fold change /veh TUBB4B (11761932_at) / RFU CAPN14 (11732068_a_at) / Fold change /veh CAPN14 (11732068_a_at) / RFU TMCC2 (11721928_a_at) / Fold change /veh TMCC2 (11721928_a_at) / RFU IRGQ (11745062_a_at) / Fold change /veh IRGQ (11745062_a_at) / RFU FAM174B (11720279_a_at) / Fold change /veh FAM174B (11720279_a_at) / RFU TMPRSS4 (11748680_a_at) / Fold change /veh TMPRSS4 (11748680_a_at) / RFU FAM212B (11763350_a_at) / Fold change /veh FAM212B (11763350_a_at) / RFU PLEKHG5 (11743358_a_at) / Fold change /veh PLEKHG5 (11743358_a_at) / RFU ZSCAN30 (11745921_a_at) / Fold change /veh ZSCAN30 (11745921_a_at) / RFU CMKLR1 (11741424_a_at) / Fold change /veh CMKLR1 (11741424_a_at) / RFU LOC101060620 /// MAPK8IP1 (11723275_at) / Fold change /veh LOC101060620 /// MAPK8IP1 (11723275_at) / RFU SPTSSB (11747773_x_at) / Fold change /veh SPTSSB (11747773_x_at) / RFU PRSS12 (11739890_at) / Fold change /veh PRSS12 (11739890_at) / RFU BIN1 (11741810_x_at) / Fold change /veh BIN1 (11741810_x_at) / RFU WNT11 (11732464_a_at) / Fold change /veh WNT11 (11732464_a_at) / RFU C10orf10 (11716521_a_at) / Fold change /veh C10orf10 (11716521_a_at) / RFU C5orf56 (11738089_at) / Fold change /veh C5orf56 (11738089_at) / RFU CYB561 (11721691_x_at) / Fold change /veh CYB561 (11721691_x_at) / RFU ANKRD19P (11752326_a_at) / Fold change /veh ANKRD19P (11752326_a_at) / RFU OR2T12 /// OR2T33 /// OR2T8 (11738714_s_at) / Fold change /veh OR2T12 /// OR2T33 /// OR2T8 (11738714_s_at) / RFU VCAN (11748164_a_at) / Fold change /veh VCAN (11748164_a_at) / RFU JSRP1 (11732532_at) / Fold change /veh JSRP1 (11732532_at) / RFU KRTAP10-11 (11738290_x_at) / Fold change /veh KRTAP10-11 (11738290_x_at) / RFU MYO3A (11730013_a_at) / Fold change /veh MYO3A (11730013_a_at) / RFU EBF3 (11725865_a_at) / Fold change /veh EBF3 (11725865_a_at) / RFU CAMK2N1 (11719241_x_at) / Fold change /veh CAMK2N1 (11719241_x_at) / RFU C5orf56 (11738088_a_at) / Fold change /veh C5orf56 (11738088_a_at) / RFU OLFML3 (11715873_a_at) / Fold change /veh OLFML3 (11715873_a_at) / RFU LOC100653217 /// NTM (11731650_a_at) / Fold change /veh LOC100653217 /// NTM (11731650_a_at) / RFU MAPK11 (11762145_a_at) / Fold change /veh MAPK11 (11762145_a_at) / RFU FIZ1 (11724087_x_at) / Fold change /veh FIZ1 (11724087_x_at) / RFU OASL (11726364_x_at) / Fold change /veh OASL (11726364_x_at) / RFU SOX15 (11748057_x_at) / Fold change /veh SOX15 (11748057_x_at) / RFU CD79A (11719716_a_at) / Fold change /veh CD79A (11719716_a_at) / RFU HIST1H1D (11736915_at) / Fold change /veh HIST1H1D (11736915_at) / RFU CASKIN2 (11723855_a_at) / Fold change /veh CASKIN2 (11723855_a_at) / RFU LOC730098 (11760151_x_at) / Fold change /veh LOC730098 (11760151_x_at) / RFU OR4N2 (11742367_at) / Fold change /veh OR4N2 (11742367_at) / RFU PRRT2 (11749266_a_at) / Fold change /veh PRRT2 (11749266_a_at) / RFU SNX32 (11753110_a_at) / Fold change /veh SNX32 (11753110_a_at) / RFU CDHR5 (11726645_a_at) / Fold change /veh CDHR5 (11726645_a_at) / RFU RCAN1 (11760418_a_at) / Fold change /veh RCAN1 (11760418_a_at) / RFU FAM167A (11723789_a_at) / Fold change /veh FAM167A (11723789_a_at) / RFU FAM26E (11764081_at) / Fold change /veh FAM26E (11764081_at) / RFU ISYNA1 (11749810_s_at) / Fold change /veh ISYNA1 (11749810_s_at) / RFU ACY1 (11761880_at) / Fold change /veh ACY1 (11761880_at) / RFU 11764098_at / Fold change /veh 11764098_at / RFU SAMD14 (11745864_x_at) / Fold change /veh SAMD14 (11745864_x_at) / RFU NPB (11741838_a_at) / Fold change /veh NPB (11741838_a_at) / RFU TMPRSS6 (11731388_a_at) / Fold change /veh TMPRSS6 (11731388_a_at) / RFU KRTAP10-2 (11738614_at) / Fold change /veh KRTAP10-2 (11738614_at) / RFU ARHGAP8 /// PRR5-ARHGAP8 (11727945_x_at) / Fold change /veh ARHGAP8 /// PRR5-ARHGAP8 (11727945_x_at) / RFU KRTAP5-7 /// NADSYN1 (11734609_at) / Fold change /veh KRTAP5-7 /// NADSYN1 (11734609_at) / RFU RASL12 (11751679_a_at) / Fold change /veh RASL12 (11751679_a_at) / RFU CDKN2B (11736163_a_at) / Fold change /veh CDKN2B (11736163_a_at) / RFU PRF1 (11729649_at) / Fold change /veh PRF1 (11729649_at) / RFU, ZNF638 /// ZNF638-IT1 / Fold change vs veh, ZNF638 /// ZNF638-IT1 / RFU, PANK3 / Fold change vs veh, PANK3 / RFU, SH3YL1 / Fold change vs veh, SH3YL1 / RFU, ZEB2 / Fold change vs veh, ZEB2 / RFU, NRIP1 / Fold change vs veh, NRIP1 / RFU, PTTG1IP / Fold change vs veh, PTTG1IP / RFU, CAPN2 / Fold change vs veh, CAPN2 / RFU, MED14 / Fold change vs veh, MED14 / RFU, SNORA58 / Fold change vs veh, SNORA58 / RFU, C1orf63 / Fold change vs veh, C1orf63 / RFU, LRRFIP1 / Fold change vs veh, LRRFIP1 / RFU, NDUFAF7 / Fold change vs veh, NDUFAF7 / RFU, SLC12A2 / Fold change vs veh, SLC12A2 / RFU, IBTK / Fold change vs veh, IBTK / RFU, ESF1 / Fold change vs veh, ESF1 / Fold change vs veh, TMEM50B / RFU, TAOK1 / Fold change vs veh, TAOK1 / RFU, ACBD3 / Fold change vs veh, ACBD3 / RFU, TMA16 / Fold change vs veh, TMA16 / RFU, RWDD3 / Fold change vs veh, RWDD3 / RFU, BCAT1 / Fold change vs veh, BCAT1 / RFU, EDEM3 / Fold change vs veh, EDEM3 / RFU, TMEM33 / Fold change vs veh, TMEM33 / RFU, WDR75 / Fold change vs veh, WDR75 / RFU, AHCTF1 / Fold change vs veh, AHCTF1 / RFU, TFRC / Fold change vs veh, TFRC / RFU, ZDHHC17 / Fold change vs veh, ZDHHC17 / RFU, NOM1 / Fold change vs veh, NOM1 / RFU, ARL8B / Fold change vs veh, ARL8B / RFU, ZBTB11 / Fold change vs veh, ZBTB11 / RFU, TAMM41 / Fold change vs veh, TAMM41 / RFU, KIAA1704 /// LOC100996395 / Fold change vs veh, KIAA1704 /// LOC100996395 / RFU, ING1 / Fold change vs veh, ING1 / RFU, TRMT61B / Fold change vs veh, TRMT61B / RFU, FUBP3 / Fold change vs veh, FUBP3 / RFU, TP53 / Fold change vs veh, TP53 / RFU, TNKS2 / Fold change vs veh, TNKS2 / RFU, ZFP14 / Fold change vs veh, ZFP14 / RFU, ACTR2 / Fold change vs veh, ACTR2 / RFU, PPP3R1 / Fold change vs veh, PPP3R1 / RFU, PIK3R1 / Fold change vs veh, PIK3R1 / RFU, HNRNPA1 / Fold change vs veh, HNRNPA1 / RFU, RNF170 / Fold change vs veh, RNF170 / RFU, ZNF28 / Fold change vs veh, ZNF28 / RFU, RNGTT / Fold change vs veh, RNGTT / RFU, OGT / Fold change vs veh, OGT / RFU, BRD1 / Fold change vs veh, BRD1 / RFU, MARS / Fold change vs veh, MARS / RFU, ZNF655 / Fold change vs veh, ZNF655 / RFU, FAHD1 / Fold change vs veh, FAHD1 / RFU, BDP1 / Fold change vs veh, BDP1 / RFU, LRRCC1 / Fold change vs veh, LRRCC1 / RFU, ARID1A / Fold change vs veh, ARID1A / RFU, ZNF146 / Fold change vs veh, ZNF146 / RFU, ZNF330 / Fold change vs veh, ZNF330 / RFU, GPN3 / Fold change vs veh, GPN3 / RFU, C9orf123 / Fold change vs veh, C9orf123 / RFU, N4BP2L2 / Fold change vs veh, N4BP2L2 / RFU, ARFIP1 / Fold change vs veh, ARFIP1 / RFU, FAM179B / Fold change vs veh, FAM179B / RFU, BCL10 / Fold change vs veh, BCL10 / RFU, UHRF1BP1L / Fold change vs veh, UHRF1BP1L / RFU, BET1 / Fold change vs veh, BET1 / RFU, CNOT2 / Fold change vs veh, CNOT2 / RFU, ZNF268 / Fold change vs veh, ZNF268 / Fold change vs veh, ZNF507 / RFU, DGCR2 / Fold change vs veh, DGCR2 / RFU, WDSUB1 / Fold change vs veh, WDSUB1 / Fold change vs veh, HSP90B1 /// MIR3652 / RFU, ADSS / Fold change vs veh, ADSS / RFU, GK / Fold change vs veh, GK / RFU, ZNF148 / Fold change vs veh, ZNF148 / RFU, TAF9 / Fold change vs veh, TAF9 / RFU, SLC1A5 / Fold change vs veh, SLC1A5 / RFU, SLMO2 / Fold change vs veh, SLMO2 / RFU, ABCC4 / Fold change vs veh, ABCC4 / RFU, LOC101060439 /// RAP1B / Fold change vs veh, LOC101060439 /// RAP1B / RFU, RFX7 / Fold change vs veh, RFX7 / RFU, GTPBP10 / Fold change vs veh, GTPBP10 / RFU, CNEP1R1 / Fold change vs veh, CNEP1R1 / RFU, BIVM-ERCC5 /// ERCC5 / Fold change vs veh, BIVM-ERCC5 /// ERCC5 / RFU, ILF3 / Fold change vs veh, ILF3 / RFU 11762660_at / Fold change /veh 11762660_at / RFU VCAN (11757783_s_at) / Fold change /veh VCAN (11757783_s_at) / RFU DDX43 (11728927_at) / Fold change /veh DDX43 (11728927_at) / RFU KRT8 (11758188_x_at) / Fold change /veh KRT8 (11758188_x_at) / RFU NKD1 (11759106_at) / Fold change /veh NKD1 (11759106_at) / RFU SRD5A1 (11742802_a_at) / Fold change /veh SRD5A1 (11742802_a_at) / RFU TPSAB1 /// TPSB2 (11721975_s_at) / Fold change /veh TPSAB1 /// TPSB2 (11721975_s_at) / RFU GSTM3 (11746129_a_at) / Fold change /veh GSTM3 (11746129_a_at) / RFU IL23R (11737362_x_at) / Fold change /veh IL23R (11737362_x_at) / RFU TMEM51 (11727254_a_at) / Fold change /veh TMEM51 (11727254_a_at) / RFU PIWIL2 (11732686_x_at) / Fold change /veh PIWIL2 (11732686_x_at) / RFU ORM1 (11744905_x_at) / Fold change /veh ORM1 (11744905_x_at) / RFU CCDC152 (11743942_at) / Fold change /veh CCDC152 (11743942_at) / RFU ECM1 (11717891_a_at) / Fold change /veh ECM1 (11717891_a_at) / RFU IL23R (11748794_a_at) / Fold change /veh IL23R (11748794_a_at) / RFU TNFAIP8L3 (11732012_x_at) / Fold change /veh TNFAIP8L3 (11732012_x_at) / RFU MBOAT4 (11741988_at) / Fold change /veh MBOAT4 (11741988_at) / RFU 11764193_at / Fold change /veh 11764193_at / RFU TMEM53 (11763286_at) / Fold change /veh TMEM53 (11763286_at) / RFU MAGEB2 (11727129_at) / Fold change /veh MAGEB2 (11727129_at) / RFU TMEM200A (11744735_a_at) / Fold change /veh TMEM200A (11744735_a_at) / RFU CCDC152 (11751479_a_at) / Fold change /veh CCDC152 (11751479_a_at) / RFU FAM211A (11726209_a_at) / Fold change /veh FAM211A (11726209_a_at) / RFU RGS16 (11746705_a_at) / Fold change /veh RGS16 (11746705_a_at) / RFU VCAN (11755009_s_at) / Fold change /veh VCAN (11755009_s_at) / RFU RHOB (11743442_s_at) / Fold change /veh RHOB (11743442_s_at) / RFU RGS16 (11720943_a_at) / Fold change /veh RGS16 (11720943_a_at) / RFU RGS16 (11720944_at) / Fold change /veh RGS16 (11720944_at) / RFU, VPS4B / Fold change vs veh, VPS4B / RFU, CREB1 / Fold change vs veh, CREB1 / RFU, DNAJC13 / Fold change vs veh, DNAJC13 / RFU, GNAQ / Fold change vs veh, GNAQ / RFU, CDK5R1 / Fold change vs veh, CDK5R1 / RFU, ZRANB3 / Fold change vs veh, ZRANB3 / RFU, CUL4A / Fold change vs veh, CUL4A / RFU, CCNY / Fold change vs veh, CCNY / RFU, UFL1 / Fold change vs veh, UFL1 / RFU, COG3 / Fold change vs veh, COG3 / RFU, DIAPH2 / Fold change vs veh, DIAPH2 / RFU, SKA2 / Fold change vs veh, SKA2 / RFU, AFF3 / Fold change vs veh, AFF3 / RFU, LMF1 / Fold change vs veh, LMF1 / RFU, IPO11 / Fold change vs veh, IPO11 / RFU, DFFB / Fold change vs veh, DFFB / RFU, FOXP1 / Fold change vs veh, FOXP1 / RFU, CARD8 / Fold change vs veh, CARD8 / RFU, STRN3 / Fold change vs veh, STRN3 / RFU, ADK / Fold change vs veh, ADK / RFU, RASSF2 / Fold change vs veh, RASSF2 / RFU, WIPF1 / Fold change vs veh, WIPF1 / RFU, LARP1B / Fold change vs veh, LARP1B / RFU, RASA1 / Fold change vs veh, RASA1 / RFU, RB1 / Fold change vs veh, RB1 / RFU, PPFIA1 / Fold change vs veh, PPFIA1 / RFU, MAT2A / Fold change vs veh, MAT2A / RFU, CCT5 / Fold change vs veh, CCT5 / RFU, WDR92 / Fold change vs veh, WDR92 / RFU, CUX1 / Fold change vs veh, CUX1 / RFU, TTC7A / Fold change vs veh, TTC7A / RFU, TMEM135 / Fold change vs veh, TMEM135 / RFU, DEPTOR / Fold change vs veh, DEPTOR / RFU, CPM / Fold change vs veh, CPM / RFU, DNAJB6 / Fold change vs veh, DNAJB6 / RFU, CACNA2D3 / Fold change vs veh, CACNA2D3 / RFU, DTX4 / Fold change vs veh, DTX4 / RFU, TFCP2 / Fold change vs veh, TFCP2 / RFU, GMCL1 /// GMCL1P1 / Fold change vs veh, GMCL1 /// GMCL1P1 / RFU, AEBP2 / Fold change vs veh, AEBP2 / RFU, SNHG1 /// SNORD22 /// SNORD25 /// SNORD26 /// SNORD27 /// SNORD28 /// SNORD29 /// SNORD31 / Fold change vs veh, SNHG1 /// SNORD22 /// SNORD25 /// SNORD26 /// SNORD27 /// SNORD28 /// SNORD29 /// SNORD31 / Fold change (Aza/veh), C12orf56 (ProbeSet 11735607_a_at) / Fold change (ACY-1035/veh), C12orf56 (ProbeSet 11735607_a_at) / Fold change (Aza/veh), FGFR1OP (ProbeSet 11751329_s_at) / Fold change (ACY-1035/veh), FGFR1OP (ProbeSet 11751329_s_at) / Fold change (Aza/veh), VPS36 (ProbeSet 11739960_a_at) / Fold change (ACY-1035/veh), VPS36 (ProbeSet 11739960_a_at) / RFU SYPL1 (11715823_x_at) / Fold change /veh SYPL1 (11715823_x_at) / RFU IGFBP7 (11715501_s_at) / Fold change /veh IGFBP7 (11715501_s_at) / RFU REEP3 (11722064_at) / Fold change /veh REEP3 (11722064_at) / RFU IGLL1 (11728026_x_at) / Fold change /veh IGLL1 (11728026_x_at): dose or concentration left out as unconfirmed
Conditions: ProbeSet 11717702_a_at; LIST D

Compound: Nc1ncn([C@@H]2O[C@H](CO)[C@@H](O)[C@H]2O)c(=O)n1 [azacitidine]
- RFU, RB1: 184.53 RFU
